Measurements as given in PubChem BioAssay AID2060483 (Molecular Pharmacology Branch, DTP, NCI, 2025).

Tested on: K24384-001-R-PDC complex spheroids, viability
Test: Anticancer human tumor K24384-001-R-PDC patient-derived pancreatic adenocarcinoma cell line growth inhibition [GQUAD]
Conditions: for IC50: curve of first compound; for viability, T/C: stronger effect = lower value; active = viability on the fitted dose curve at most 10% of control; inactive = the rest
Method in brief: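 Viability of tumor cells grown as complex spheroids with endothelial and stromal cells, exposed to drug combinations. Top concentration at or near clinical Cmax (else 10 microM), diluted in half-log increments.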

[1] = second compound 0.0316 µM, first compound 0.0316 µM
[2] = second compound 0.0316 µM, first compound 0.1 µM
[3] = second compound 0.0316 µM, first compound 0.316 µM
[4] = second compound 0.0316 µM, first compound 1 µM
[5] = second compound 0.0316 µM, first compound 3.16 µM
[6] = second compound 0.0316 µM, first compound 10 µM
[7] = second compound 0.1 µM, first compound 0.0316 µM
[8] = second compound 0.1 µM, first compound 0.1 µM
[9] = second compound 0.1 µM, first compound 0.316 µM
[10] = second compound 0.1 µM, first compound 1 µM
[11] = second compound 0.1 µM, first compound 3.16 µM
[12] = second compound 0.1 µM, first compound 10 µM
[13] = second compound 0.316 µM, first compound 0.0316 µM
[14] = second compound 0.316 µM, first compound 0.1 µM
[15] = second compound 0.316 µM, first compound 0.316 µM
[16] = second compound 0.316 µM, first compound 1 µM
[17] = second compound 0.316 µM, first compound 3.16 µM
[18] = second compound 0.316 µM, first compound 10 µM
[19] = second compound 1 µM, first compound 0.0316 µM
[20] = second compound 1 µM, first compound 0.1 µM
[21] = second compound 1 µM, first compound 0.316 µM
[22] = second compound 1 µM, first compound 1 µM
[23] = second compound 1 µM, first compound 3.16 µM
[24] = second compound 1 µM, first compound 10 µM
[25] = second compound 3.16 µM, first compound 0.0316 µM
[26] = second compound 3.16 µM, first compound 0.1 µM
[27] = second compound 3.16 µM, first compound 0.316 µM
[28] = second compound 3.16 µM, first compound 1 µM
[29] = second compound 3.16 µM, first compound 3.16 µM
[30] = second compound 3.16 µM, first compound 10 µM
[31] = second compound 10 µM, first compound 0.0316 µM
[32] = second compound 10 µM, first compound 0.1 µM
[33] = second compound 10 µM, first compound 0.316 µM
[34] = second compound 10 µM, first compound 1 µM
[35] = second compound 10 µM, first compound 3.16 µM
[36] = second compound 10 µM, first compound 10 µM
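Also: spheroids exposed to compounds for seven days.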

Cc1cccc(N(C)C(=O)C2C(O)CCN2c2nc(C)cc(C(F)(F)F)c2C#N)c1 (stereo not drawn) + Cc1cnc(CNC(=O)c2c(=O)c3ccc(N4CCCN(C)CC4)nc3n3c2sc2ccccc23)cn1
> 10000 nM: IC50 (second compound 0.0316 µM) | IC50 (second compound 0.1 µM)
31.6 nM: IC50 (second compound 0.316 µM)
inactive: viability, T/C [1] 105% | viability, T/C [2] 81.5% | viability, T/C [3] 86.5% | viability, T/C [4] 74.2% | viability, T/C [5] 95.6% | viability, T/C [6] 107% | viability, T/C [7] 70% | viability, T/C [8] 73.8% | viability, T/C [9] 57.7% | viability, T/C [10] 69.6% | viability, T/C [11] 72.9% | viability, T/C [12] 71.6% | viability, T/C [13] 53.3% | viability, T/C [14] 56% | viability, T/C [15] 49.2% | viability, T/C [16] 57.4% | viability, T/C [17] 74.9% | viability, T/C [18] 55.8% | viability, T/C [19] 44.1% | viability, T/C [20] 44.4% | viability, T/C [21] 50.5% | viability, T/C [22] 44.6% | viability, T/C [23] 57.5% | viability, T/C [24] 41.7% | viability, T/C [25] 38.1% | viability, T/C [26] 42% | viability, T/C [27] 41.3% | viability, T/C [28] 49.3% | viability, T/C [29] 39.9% | viability, T/C [30] 41.5% | viability, T/C [31] 40.6% | viability, T/C [32] 37.4% | viability, T/C [33] 43.3% | viability, T/C [34] 44.4% | viability, T/C [35] 26.2% | viability, T/C [36] 36.4%
< 31.6 nM: IC50 (second compound 1 µM) | IC50 (second compound 3.16 µM) | IC50 (second compound 10 µM)

C=CC(=O)N1CCN(c2nc(=O)n(-c3c(C)ccnc3C(C)C)c3nc(-c4c(O)cccc4F)c(F)cc23)C(C)C1 (stereo not drawn) + Cc1[nH]c2ccc(F)cc2c1-c1nc2c3cccnc3c3ncccc3c2[nH]1
inactive: viability, T/C [1] 111% | viability, T/C [2] 78.9% | viability, T/C [3] 104% | viability, T/C [4] 101% | viability, T/C [5] 111% | viability, T/C [6] 88.3% | viability, T/C [7] 96% | viability, T/C [8] 96.8% | viability, T/C [9] 95% | viability, T/C [10] 117% | viability, T/C [11] 106% | viability, T/C [12] 77.4% | viability, T/C [13] 110% | viability, T/C [14] 92.8% | viability, T/C [15] 95.2% | viability, T/C [16] 119% | viability, T/C [17] 101% | viability, T/C [18] 83.3% | viability, T/C [19] 92.8% | viability, T/C [20] 105% | viability, T/C [21] 99.5% | viability, T/C [22] 103% | viability, T/C [23] 96.2% | viability, T/C [24] 70.1% | viability, T/C [25] 71.7% | viability, T/C [26] 74.8% | viability, T/C [27] 71.2% | viability, T/C [28] 84.4% | viability, T/C [29] 79.2% | viability, T/C [30] 67.1% | viability, T/C [31] 66% | viability, T/C [32] 63.7% | viability, T/C [33] 65.7% | viability, T/C [34] 72.3% | viability, T/C [35] 80.5% | viability, T/C [36] 60.8%
> 10000 nM: IC50 (second compound 0.0316 µM) | IC50 (second compound 0.1 µM) | IC50 (second compound 0.316 µM) | IC50 (second compound 1 µM) | IC50 (second compound 3.16 µM) | IC50 (second compound 10 µM)

O=C(NO)c1cnc(N2CCN(S(=O)(=O)c3ccc4ccccc4c3)CC2)nc1 + Cc1cnc(CNC(=O)c2c(=O)c3ccc(N4CCCN(C)CC4)nc3n3c2sc2ccccc23)cn1
< 31.6 nM: IC50 (second compound 1 µM) | IC50 (second compound 3.16 µM) | IC50 (second compound 10 µM)
inactive: viability, T/C [1] 86.3% | viability, T/C [2] 78% | viability, T/C [3] 77.2% | viability, T/C [7] 65.2% | viability, T/C [8] 78.7% | viability, T/C [9] 51.2% | viability, T/C [13] 42.7% | viability, T/C [14] 73% | viability, T/C [15] 35.8% | viability, T/C [19] 38.9% | viability, T/C [20] 43.9% | viability, T/C [21] 31.3% | viability, T/C [25] 33.3% | viability, T/C [26] 34.1% | viability, T/C [27] 16.3%
477 nM: IC50 (second compound 0.0316 µM)
325 nM: IC50 (second compound 0.1 µM)
151 nM: IC50 (second compound 0.316 µM)
active: viability, T/C [4] 0.9% | viability, T/C [5] 0.08% | viability, T/C [6] 0.11% | viability, T/C [10] 1.11% | viability, T/C [11] 0.09% | viability, T/C [12] 0.11% | viability, T/C [16] 0.16% | viability, T/C [17] 0.07% | viability, T/C [18] 0.09% | viability, T/C [22] 0.12% | viability, T/C [23] 0.07% | viability, T/C [24] 0.11% | viability, T/C [28] 0.12% | viability, T/C [29] 0.1% | viability, T/C [30] 0.14% | viability, T/C [31] 0.16% | viability, T/C [32] 0.23% | viability, T/C [33] 0.19% | viability, T/C [34] 0.16% | viability, T/C [35] 0.17% | viability, T/C [36] 0.16%

CC(=O)O[C@H]1C(=O)[C@@]2(C)[C@H]([C@H](OC(=O)c3ccccc3)[C@]3(O)C[C@H](OC(=O)[C@H](O)[C@@H](NC(=O)c4ccccc4)c4ccccc4)C(C)=C1C3(C)C)[C@]1(OC(C)=O)CO[C@@H]1C[C@@H]2O + Cc1cnc(CNC(=O)c2c(=O)c3ccc(N4CCCN(C)CC4)nc3n3c2sc2ccccc23)cn1
< 31.6 nM: IC50 (second compound 0.1 µM) | IC50 (second compound 0.316 µM) | IC50 (second compound 1 µM) | IC50 (second compound 3.16 µM) | IC50 (second compound 10 µM)
active: viability, T/C [31] 0.14% | viability, T/C [32] 0.18% | viability, T/C [33] 0.21% | viability, T/C [34] 0.18% | viability, T/C [35] 0.19% | viability, T/C [36] 0.2%
37.4 nM: IC50 (second compound 0.0316 µM)
inactive: viability, T/C [1] 53.4% | viability, T/C [2] 27.2% | viability, T/C [3] 38.1% | viability, T/C [4] 23.7% | viability, T/C [5] 29.2% | viability, T/C [6] 31.1% | viability, T/C [7] 47.4% | viability, T/C [8] 35.2% | viability, T/C [9] 30.4% | viability, T/C [10] 31.8% | viability, T/C [11] 29.5% | viability, T/C [12] 36.8% | viability, T/C [13] 47% | viability, T/C [14] 39.9% | viability, T/C [15] 36.5% | viability, T/C [16] 29.9% | viability, T/C [17] 39.1% | viability, T/C [18] 34.3% | viability, T/C [19] 32.4% | viability, T/C [20] 36.2% | viability, T/C [21] 26.6% | viability, T/C [22] 37.4% | viability, T/C [23] 41.9% | viability, T/C [24] 34.4% | viability, T/C [25] 31.9% | viability, T/C [26] 33.5% | viability, T/C [27] 32.6% | viability, T/C [28] 28.9% | viability, T/C [29] 32.5% | viability, T/C [30] 36.5%
